For assay [1], the target named is T1, Histone-lysine N-methyltransferase NSD2 (Homo sapiens, UniProt O96028).
T1 sequence (O96028 whole entry): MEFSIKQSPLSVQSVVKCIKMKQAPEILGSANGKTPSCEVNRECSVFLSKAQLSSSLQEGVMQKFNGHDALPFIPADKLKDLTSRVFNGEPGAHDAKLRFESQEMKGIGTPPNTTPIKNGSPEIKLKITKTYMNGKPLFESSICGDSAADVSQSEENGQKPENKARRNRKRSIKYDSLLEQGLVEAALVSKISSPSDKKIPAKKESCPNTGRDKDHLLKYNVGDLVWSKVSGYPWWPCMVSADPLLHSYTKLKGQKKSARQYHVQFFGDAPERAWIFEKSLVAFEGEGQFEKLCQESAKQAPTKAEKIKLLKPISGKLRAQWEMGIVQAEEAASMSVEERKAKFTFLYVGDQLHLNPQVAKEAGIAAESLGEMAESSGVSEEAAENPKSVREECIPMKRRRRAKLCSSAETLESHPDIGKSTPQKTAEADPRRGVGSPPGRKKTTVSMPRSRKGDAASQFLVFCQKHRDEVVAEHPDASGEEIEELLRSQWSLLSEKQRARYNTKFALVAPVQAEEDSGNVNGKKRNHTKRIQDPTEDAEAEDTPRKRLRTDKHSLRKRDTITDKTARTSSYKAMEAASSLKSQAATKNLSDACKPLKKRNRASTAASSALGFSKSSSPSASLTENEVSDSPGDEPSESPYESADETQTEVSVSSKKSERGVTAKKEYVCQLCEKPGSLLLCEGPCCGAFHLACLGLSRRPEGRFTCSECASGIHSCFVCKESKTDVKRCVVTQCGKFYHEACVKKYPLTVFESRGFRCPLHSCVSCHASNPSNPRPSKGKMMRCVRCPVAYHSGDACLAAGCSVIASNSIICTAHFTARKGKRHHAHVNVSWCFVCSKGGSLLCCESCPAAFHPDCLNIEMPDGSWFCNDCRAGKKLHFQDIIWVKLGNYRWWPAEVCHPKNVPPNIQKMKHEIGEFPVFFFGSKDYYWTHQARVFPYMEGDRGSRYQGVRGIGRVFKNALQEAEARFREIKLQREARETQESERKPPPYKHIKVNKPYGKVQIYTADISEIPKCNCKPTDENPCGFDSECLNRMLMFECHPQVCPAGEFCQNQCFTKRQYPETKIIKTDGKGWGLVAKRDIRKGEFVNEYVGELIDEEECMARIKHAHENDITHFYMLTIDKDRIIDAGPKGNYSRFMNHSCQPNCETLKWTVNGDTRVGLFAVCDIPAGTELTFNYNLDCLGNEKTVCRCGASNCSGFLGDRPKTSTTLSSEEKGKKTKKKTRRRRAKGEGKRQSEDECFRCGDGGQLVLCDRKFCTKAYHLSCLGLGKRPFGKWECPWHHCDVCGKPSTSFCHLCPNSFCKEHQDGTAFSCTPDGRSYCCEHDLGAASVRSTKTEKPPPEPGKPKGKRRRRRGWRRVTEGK
Format: biochemical.

The nature of assay [2]: cytotoxicity in HEK-293T cells, dose response, cytotoxicity control for TCR NF-kB inhibitor project, luminescence, T-cell screen hits (AID 489026).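 Note: cells exposed to compound about 14 hours before the viability readout.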 It is filed as functional, cell-based.
The target in assay [3] is T2, Apoptotic protease-activating factor 1 (Homo sapiens, UniProt O14727).
T2 sequence (O14727 whole entry): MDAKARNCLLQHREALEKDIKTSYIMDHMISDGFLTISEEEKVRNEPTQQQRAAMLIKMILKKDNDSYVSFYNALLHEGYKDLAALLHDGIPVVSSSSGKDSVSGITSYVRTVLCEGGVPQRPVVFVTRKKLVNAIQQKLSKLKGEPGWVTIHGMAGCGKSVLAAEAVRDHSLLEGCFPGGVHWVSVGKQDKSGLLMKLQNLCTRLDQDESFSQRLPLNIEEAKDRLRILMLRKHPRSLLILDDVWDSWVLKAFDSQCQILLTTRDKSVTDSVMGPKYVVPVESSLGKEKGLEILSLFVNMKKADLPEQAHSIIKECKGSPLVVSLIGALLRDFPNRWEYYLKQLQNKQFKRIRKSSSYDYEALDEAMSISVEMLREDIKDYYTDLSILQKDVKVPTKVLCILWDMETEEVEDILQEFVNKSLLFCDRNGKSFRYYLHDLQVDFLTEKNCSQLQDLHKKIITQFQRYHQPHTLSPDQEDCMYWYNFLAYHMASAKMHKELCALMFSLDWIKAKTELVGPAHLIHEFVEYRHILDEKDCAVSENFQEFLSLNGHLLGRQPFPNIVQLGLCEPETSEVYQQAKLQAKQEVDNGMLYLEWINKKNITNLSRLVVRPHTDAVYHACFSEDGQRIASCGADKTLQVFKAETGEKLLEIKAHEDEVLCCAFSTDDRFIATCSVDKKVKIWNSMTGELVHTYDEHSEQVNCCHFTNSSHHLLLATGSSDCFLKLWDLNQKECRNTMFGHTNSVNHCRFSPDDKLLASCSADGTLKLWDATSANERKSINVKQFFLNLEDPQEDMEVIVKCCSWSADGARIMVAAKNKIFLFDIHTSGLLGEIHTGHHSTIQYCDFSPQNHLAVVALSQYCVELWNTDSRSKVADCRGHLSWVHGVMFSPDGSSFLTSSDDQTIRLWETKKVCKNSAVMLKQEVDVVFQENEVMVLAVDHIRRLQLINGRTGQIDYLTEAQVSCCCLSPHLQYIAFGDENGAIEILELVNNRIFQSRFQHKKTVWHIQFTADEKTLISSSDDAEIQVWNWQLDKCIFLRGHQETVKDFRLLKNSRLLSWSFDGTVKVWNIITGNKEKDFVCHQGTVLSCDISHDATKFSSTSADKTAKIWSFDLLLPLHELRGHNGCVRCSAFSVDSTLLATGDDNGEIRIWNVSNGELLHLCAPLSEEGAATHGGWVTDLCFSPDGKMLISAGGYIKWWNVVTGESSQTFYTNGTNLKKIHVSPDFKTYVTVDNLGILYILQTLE
It is filed as functional.

Assay [4] has as its target T3, Mitochondrial peptide methionine sulfoxide reductase (Bos taurus, UniProt P54149).
T3 sequence (P54149 whole entry): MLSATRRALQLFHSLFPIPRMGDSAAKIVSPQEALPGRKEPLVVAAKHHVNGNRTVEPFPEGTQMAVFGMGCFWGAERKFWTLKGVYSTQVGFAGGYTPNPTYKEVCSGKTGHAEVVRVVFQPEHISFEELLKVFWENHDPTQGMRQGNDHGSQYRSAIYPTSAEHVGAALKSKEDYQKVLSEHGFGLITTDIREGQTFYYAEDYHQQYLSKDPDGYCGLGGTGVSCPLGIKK
As to the kind of experiment: Absorbance-based biochemical high throughput dose response assay for activators of Methionine sulfoxide reductase A (MsrA). It is filed as functional.

Assay [5] deals with HEK293. Put plainly: NOD1 signaling inhibitors, primary screen, cell-based, luminescence, uHTS (AID 1578). It is filed as functional. Conditions: Homo sapiens.
In assay [6] the test system is HEK293. As to the kind of experiment: cells. It is filed as functional, cell-based. Conditions: Homo sapiens.
Assay [7] has as its target UDP-galactopyranose mutase (Mycobacterium tuberculosis, UniProt P9WIQ1). Put plainly: Inhibitors of Mycobacterium tuberculosis UDP-galactopyranose mutase (UGM) enzyme Measured in Biochemical System Using Plate Reader - 2105-02_Inhibitor_Dose_CherryPick_Activity. [Related pubchem assays (depositor defined):AID504439].

The record followed here is ChEMBL document CHEMBL1201862, “PubChem BioAssay data set” (2004).

In general, AC50 refers to the concentration at which the activity in the assay is half-maximal. As usually defined, the IC50 is the point on the concentration scale where inhibition reaches its midpoint. The term EC50 denotes the concentration giving half of the maximal effect.

Active and inactive are the calls of the source.

UDP-galactopyranose mutase, sequence (P9WIQ1 whole entry): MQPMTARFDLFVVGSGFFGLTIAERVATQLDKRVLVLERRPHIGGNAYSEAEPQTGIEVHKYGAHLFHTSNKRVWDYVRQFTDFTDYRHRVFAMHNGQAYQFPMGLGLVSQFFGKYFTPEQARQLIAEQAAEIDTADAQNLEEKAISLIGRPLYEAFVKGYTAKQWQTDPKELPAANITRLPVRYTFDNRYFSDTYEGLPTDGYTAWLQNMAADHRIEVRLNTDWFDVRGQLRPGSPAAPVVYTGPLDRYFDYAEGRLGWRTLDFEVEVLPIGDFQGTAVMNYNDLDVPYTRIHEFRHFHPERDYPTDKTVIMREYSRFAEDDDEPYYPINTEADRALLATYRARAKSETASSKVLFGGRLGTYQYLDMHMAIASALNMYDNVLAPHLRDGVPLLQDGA

For the compound `CC(C)c1ccc(S(=O)(=O)/N=C2\C=C(NS(=O)(=O)c3ccccc3)C(=O)c3ccccc32)cc1`, the AC50 in assay [1] is 4 µM (active).
Turning to `COc1ccc(CNC(=O)c2c(C)oc3c2C(=O)c2ccccc2C3=O)cc1`, the values for the IC50 in assay [2] and in assay [3] were 21.5 µM (inactive) and 23.1 µM (active), respectively. Moreover, in assay [4], the EC50 is > 104 µM (inactive).
For the compound `CCSc1nsc(NC(=O)Nc2cccc(F)c2)n1`, the EC50 with HEK293 [5] is 3.22 µM (active). In the assay on HEK293 [6], the half-maximal inhibitory concentration (IC50) was 10.8 µM (active).
Regarding `O=[N+]([O-])c1ccc(/C=N/n2cnc3ccccc32)s1`, in assay [7], the AC50 was 148 µM (active).
